Assay [1] deals with T1, thrombin (Homo sapiens, UniProt P00734). The experiment in a line: Thrombin-inhibitory activity in plasma samples (ecarin-activated). Type of assay: biochemical. As to conditions: citrate plasma, ecarin activation, fluorogenic thrombin substrate; read at about 70% of maximum signal (about 12 min); in some cases means. As to the method:
To determine the inhibition of thrombin in plasma samples, plasma prothrombinase is activated by ecarin. Thrombin activity and/or its inhibition by potential inhibitors is/are then measured fluorescently by addition of a substrate.
The substances to be tested are dissolved in various concentrations in dimethyl sulphoxide and diluted with water. In white 96-well flat-bottomed plates, 20 μl of substance dilution are mixed with 20 μl of ecarin solution (ecarin reagent, from Sigma E-0504, final concentration 20 mU per reaction) in Ca buffer (200 mM Hepes+560 mM sodium chloride+10 mM calcium chloride+0.4% PEG) or with 20 μl of Ca buffer (as unstimulated control). Furthermore, 20 μl of fluorogenic thrombin substrate (from Bachem 1-1120, final concentration 50 μmol/l) and 20 μl of citrate plasma (from Octapharma) are added, and the mixture is homogenized well. The plate is measured in a SpectraFluorplus Reader using a 360 nm excitation filter and a 465 nm emission filter every minute over 20 minutes. […] Representative activity data from this test are given in Table 2 below (in some cases as means of individual determinations): […]

Assay [2] concerns the target T1, thrombin. The experiment in a line: Measurement of the thrombin inhibition in buffer. Format: biochemical. Conditions: human thrombin 0.06 nmol/l in Tris buffer pH 7.4, 22° C., substrate Boc-Asp(OBzl)-Pro-Arg-AMC; in some cases means of individual determinations. Here is the method:
To determine the thrombin inhibition of the substances listed above, a biochemical test system is constructed in which the conversion of a thrombin substrate is used for determining the enzymatic activity of human thrombin. Here, thrombin cleaves aminomethylcoumarin, which is measured fluorescently, from the peptic substrate. The determinations are carried out in microtitre plates.
Substances to be tested are dissolved in various concentrations in dimethyl sulphoxide and incubated for 15 min with human thrombin (0.06 nmol/l dissolved in 50 mmol/l of Tris buffer [C,C,C-tris(hydroxymethyl)aminomethane], 100 mmol/l of sodium chloride, 0.1% BSA [bovine serum albumin], pH 7.4) at 22° C. The substrate (5 μmol/l Boc-Asp(OBzl)-Pro-Arg-AMC from Bachem) is then added. After 30 min of incubation, the sample is excited at a wavelength of 360 nm and the emission is measured at 460 nm. The measured emissions of the test mixtures with test substance are compared to the control mixtures without test substance (only dimethyl sulphoxide instead of test substance in dimethyl sulphoxide) and IC50 values are calculated from the concentration/activity relationships. Representative activity data from this test are given in Table 1 below (in some cases as means of individual determinations): […]

As to `COc1cc(C(=O)N2CC(C)(C)OCC2(C)CO)cn2nc(NCc3cccc(Cl)c3)nc12` (racemic) [Example 8, {2-[(3-Chlorobenzyl)amino]-8-methoxy[1,2,4]triazolo[1,5-a]pyridin-6-yl}[5-(hydroxymethyl)-2,2,5-trimethylmorpholin-4-yl]methanone], the IC50 was 29 nM in assay [1] and 20 nM in assay [2].
With `COCC1COC(C)(C)CN1C(=O)c1cc(OC)c2nc(NCc3cccc(Cl)c3)nn2c1` (racemic) [Example 11, {2-[(3-Chlorobenzyl)amino]-8-methoxy[1,2,4]triazolo[1,5-a]pyridin-6-yl}[5-(methoxymethyl)-2,2-dimethylmorpholin-4-yl]methanone], the IC50 in assay [1] worked out at 64 nM; in assay [2] it was 63 nM.
Take `COc1cc(C(=O)N2CC(C)(C)OCC2CF)cn2nc(NCc3cccc(Cl)c3)nc12` (racemic) [Example 12, {2-[(3-Chlorobenzyl)amino]-8-methoxy[1,2,4]triazolo[1,5-a]pyridin-6-yl}[5-(fluoromethyl)-2,2-dimethylmorpholin-4-yl]methanone]: the figures for the IC50 in assay [1] and in assay [2] were 56 nM and 35 nM, respectively.
Consider `COc1cc(C(=O)N2CC(C)OCC2CCO)cn2nc(NCc3cccc(Cl)c3)nc12` (racemic) [Example 15, {2-[(3-Chlorobenzyl)amino]-8-methoxy[1,2,4]triazolo[1,5-a]pyridin-6-yl}[5-(2-hydroxyethyl)-2-methylmorpholin-4-yl]methanone], for which the figures for the IC50 in assay [1] and in assay [2] were 75 nM and 53 nM, respectively.
In the case of `COc1cc(C(=O)N2CC(C)OCC2(C)C)cn2nc(NCc3cccc(Cl)c3)nc12` (racemic) [Example 26], in assay [2], 88 nM corresponded to half-maximal inhibition (IC50).
Turning to `COc1cc(C(=O)N2CC(C)(CCO)OCC2(C)C)cn2nc(NCc3cccc(Cl)c3)nc12` (racemic) [Example 31, {2-[(3-Chlorobenzyl)amino]-8-methoxy[1,2,4]triazolo[1,5-a]pyridin-6-yl}[2-(2-hydroxyethyl)-2,5,5-trimethylmorpholin-4-yl]methanone], the IC50 was 15 nM in assay [1] and 11 nM in assay [2].
On to `COc1cc(C(=O)N2CC(C)OCC2CC(C)(C)O)cn2nc(NCc3cccc(Cl)c3)nc12` (racemic) [Example 42, {2-[(3-Chlorobenzyl)amino]-8-methoxy[1,2,4]triazolo[1,5-a]pyridin-6-yl}[5-(2-hydroxy-2-methylpropyl)-2-methylmorpholin-4-yl]methanone], for which the IC50 came to 54 nM in assay [1] and 37 nM in assay [2].
Turning to `COc1cc(C(=O)N2CC3CCN3C(=O)C2C)cn2nc(N[C@H](C)c3cccc(Cl)c3)nc12` (single isomer, unassigned) [Example 1], the IC50 worked out at 33 nM in assay [1] and 34 nM in assay [2].
As to `COc1cc(C(=O)N2CC(C)OCC2C2CC(O)C2)cn2nc(NCc3cccc(Cl)c3)nc12` (single isomer, unassigned) [Example 3, {2-[(3-Chlorobenzyl)amino]-8-methoxy[1,2,4]triazolo[1,5-a]pyridin-6-yl}[5-(3-hydroxycyclobutyl)-2-methylmorpholin-4-yl]methanone], the IC50 in assay [1] and in assay [2] was 70 nM throughout.
As for `COc1cc(C(=O)N2CC(C)OC[C@H]2C)cn2nc(NC(CF)c3cccc(Cl)c3)nc12` (single isomer, unassigned) [Example 5], the IC50 in assay [1] was determined as 87 nM.
On to `COc1cc(C(=O)N2CC(C)(C)OCC2CF)cn2nc(NCc3cccc(Cl)c3)nc12` (single isomer, unassigned) [Example 13, {2-[(3-Chlorobenzyl)amino]-8-methoxy[1,2,4]triazolo[1,5-a]pyridin-6-yl}[5-(fluoromethyl)-2,2-dimethylmorpholin-4-yl]methanone], for which the IC50 in assay [2] was 420 nM.
Turning to `COc1cc(C(=O)N2CC(C)OCC2(C)C)cn2nc(NCc3cccc(Cl)c3)nc12` (single isomer, unassigned) [Example 28], 180 nM corresponded to half-maximal inhibition in assay [2] (IC50).
Same read-out and setting: the figure for `COc1cc(C(=O)N2CC(C)(CCO)OCC2(C)C)cn2nc(NCc3cccc(Cl)c3)nc12` (single isomer, unassigned) [Example 32, {2-[(3-Chlorobenzyl)amino]-8-methoxy[1,2,4]triazolo[1,5-a]pyridin-6-yl}[2-(2-hydroxyethyl)-2,5,5-trimethylmorpholin-4-yl]methanone] is 230 nM; for `COc1cc(C(=O)N2CC(C)(CC(C)O)OCC2(C)C)cn2nc(NCc3cccc(Cl)c3)nc12` (single isomer, unassigned) [Example 38, {2-[(3-Chlorobenzyl)amino]-8-methoxy[1,2,4]triazolo[1,5-a]pyridin-6-yl}[2-(2-hydroxypropyl)-2,5,5-trimethylmorpholin-4-yl]methanone] it is 2800 nM.
In assay [2], `COc1cc(C(=O)N2CC(C)OCC2CC(C)(C)O)cn2nc(NCc3cccc(Cl)c3)nc12` (single isomer, unassigned) [Example 43, {2-[(3-Chlorobenzyl)amino]-8-methoxy[1,2,4]triazolo[1,5-a]pyridin-6-yl}[5-(2-hydroxy-2-methylpropyl)-2-methylmorpholin-4-yl]methanone] came in with an IC50 of 81 nM.
Regarding `COc1cc(C(=O)N2CC(C)OCC2CC(C)(C)O)cn2nc(NCc3cccc(Cl)c3)nc12` (single isomer, unassigned) [Example 44, {2-[(3-Chlorobenzyl)amino]-8-methoxy[1,2,4]triazolo[1,5-a]pyridin-6-yl}[5-(2-hydroxy-2-methylpropyl)-2-methylmorpholin-4-yl]methanone], half-maximal inhibition in assay [2] (IC50) required 29 nM.
As for `COc1cc(C(=O)N2CC(C)(C)OCC2CC(C)O)cn2nc(NCc3cccc(Cl)c3)nc12` (single isomer, unassigned) [Example 46, {2-[(3-Chlorobenzyl)amino]-8-methoxy[1,2,4]triazolo[1,5-a]pyridin-6-yl}[5-(2-hydroxypropyl)-2,2-dimethylmorpholin-4-yl]methanone], it took 190 nM to reach half-maximal inhibition in assay [2] (IC50).
Regarding `COc1cc(C(=O)N2CC(C)(C)OCC2CC(C)O)cn2nc(NCc3cccc(Cl)c3)nc12` (single isomer, unassigned) [Example 47, {2-[(3-Chlorobenzyl)amino]-8-methoxy[1,2,4]triazolo[1,5-a]pyridin-6-yl}[5-(2-hydroxypropyl)-2,2-dimethylmorpholin-4-yl]methanone], the IC50 in assay [2] came to 180 nM.
In assay [2], `COc1cc(C(=O)N2CC(C)(C)OCC2CC(C)O)cn2nc(NCc3cccc(Cl)c3)nc12` (single isomer, unassigned) [Example 48, {2-[(3-Chlorobenzyl)amino]-8-methoxy[1,2,4]triazolo[1,5-a]pyridin-6-yl}[5-(2-hydroxypropyl)-2,2-dimethylmorpholin-4-yl]methanone] registered an IC50 of 39 nM.
In assay [2], `COc1cc(C(=O)N2CC(C)(CCO)OCC2CF)cn2nc(NCc3cccc(Cl)c3)nc12` (single isomer, unassigned) [Example 51, {2-[(3-Chlorobenzyl)amino]-8-methoxy[1,2,4]triazolo[1,5-a]pyridin-6-yl}[5-(fluoromethyl)-2-(2-hydroxyethyl)-2-methylmorpholin-4-yl]methanone] gave an IC50 of 3500 nM.
The compound `COc1cc(C(=O)N2CC(C)(CCO)OCC2CF)cn2nc(NCc3cccc(Cl)c3)nc12` (single isomer, unassigned) [Example 52, {2-[(3-Chlorobenzyl)amino]-8-methoxy[1,2,4]triazolo[1,5-a]pyridin-6-yl}[5-(fluoromethyl)-2-(2-hydroxyethyl)-2-methylmorpholin-4-yl]methanone] yielded an IC50 in assay [2] of 1200 nM.
In the case of `COc1cc(C(=O)N2CC(C)(CC(C)O)OCC2CF)cn2nc(NCc3cccc(Cl)c3)nc12` (single isomer, unassigned) [Example 57, {2-[(3-Chlorobenzyl)amino]-8-methoxy[1,2,4]triazolo[1,5-a]pyridin-6-yl}[5-(fluoromethyl)-2-(2-hydroxypropyl)-2-methylmorpholin-4-yl]methanone], in assay [2], the IC50 came to 1000 nM.
`[2H]C([2H])(C)O[C@@H]1CC(CO)N(C(=O)c2cc(OC)c3nc(NCc4cccc(Cl)c4)nn3c2)C1` (stereo partly drawn) [Example 73, {2-[(3-Chlorobenzyl)amino]-8-methoxy[1,2,4]triazolo[1,5-a]pyridin-6-yl}[(4R)-4-[(1,1-^2H2)ethyloxy]-2-(hydroxymethyl)pyrrolidin-1-yl]methanone]: the IC50 in assay [1] is 39 nM.

One may read the IC50 as the concentration that gives 50% inhibition. High values mean a need for much substance, low ones inhibition by little substance.
